We go through 32 compounds from ChEMBL document CHEMBL4190162, “SAR and identification of 2-(quinolin-4-yloxy)acetamides as Mycobacterium tuberculosis cytochrome bc1 inhibitors” (Medchemcomm, 2016).

As a reminder, the MIC is the least concentration at which growth counts as inhibited. A high value points to a need for much substance.

Experiment [1] has as its system Mycobacterium tuberculosis. Description: Antimycobacterial activity against Mycobacterium tuberculosis H37Rv harboring cyd deletion mutant measured after 2 weeks by microplate alamar blue assay. The class given is functional. A general note: Resazurin is reduced to fluorescent resorufin, in cell work by metabolically active cells.
The test system of experiment [2] is Mycobacterium tuberculosis H37Rv. Description: Inhibition of QCR5 M342I mutant in Mycobacterium tuberculosis H37Rv harboring cyd deletion mutant assessed as reduction in bacterial growth relative to wild-type QCR5.
Experiment [3] has the same test system. Kind of experiment: Inhibition of QCR4 A396T mutant in Mycobacterium tuberculosis H37Rv harboring cyd deletion mutant assessed as reduction in bacterial growth relative to wild-type QCR4.
For experiment [4] the test system is unchanged. Kind of experiment: Inhibition of QCR6 A317T mutant in Mycobacterium tuberculosis H37Rv harboring cyd deletion mutant assessed as reduction in bacterial growth relative to wild-type QCR6.
The test system is the same in experiment [5]. Kind of experiment: Inhibition of QCR2 M342T mutant in Mycobacterium tuberculosis H37Rv harboring cyd deletion mutant assessed as reduction in bacterial growth relative to wild-type QCR2.
Experiment [6] shares this test system. Description: Inhibition of QCR7 S182T mutant in Mycobacterium tuberculosis H37Rv harboring cyd deletion mutant assessed as reduction in bacterial growth relative to wild-type QCR7.
The test system is the same in experiment [7]. Kind of experiment: Inhibition of QCR1 A317V mutant in Mycobacterium tuberculosis H37Rv harboring cyd deletion mutant assessed as reduction in bacterial growth relative to wild-type QCR1.
The test system is the same in experiment [8]. Kind of experiment: Inhibition of QCR3 W312G mutant in Mycobacterium tuberculosis H37Rv harboring cyd deletion mutant assessed as reduction in bacterial growth relative to wild-type QCR3.

SMILES strings stand for the structures. ≈ marks a conversion by molar mass, not a printed value.

In experiment [1], `COc1ccc2nc(C)cc(OCC(=O)NCCc3ccc(OC)c(OC)c3)c2c1` displayed an MIC of 90.13 µM (≈ 37 µg/mL).

On to `COc1ccc2nc(C)cc(OCC(=O)NCCc3ccccc3)c2c1`, for which the MIC in experiment [1] came to 4.45 µM (≈ 1.56 µg/mL).

In turn, `COCCNC(=O)COc1cc(C)nc2ccc(OC)cc12` had a minimal inhibitory concentration (MIC) in experiment [1] of 41.06 µM (≈ 12.5 µg/mL). This MIC is about 9.2-fold higher than that of the compound before.

`COc1ccc(OC)c(CCNC(=O)COc2cc(C)nc3ccc(OC)cc23)c1` gave an MIC in experiment [1] of 7.62 µM (≈ 3.13 µg/mL).

As to `COc1ccc2nc(C)cc(OCC(=O)Nc3ccc(C)cc3)c2c1`, the fold change (FC) in experiment [2] is 1; in experiment [3] it was greater than 2; in experiment [4] it was greater than 12.5; in experiment [5], greater than 2; in experiment [6], greater than 16.3; in experiment [7], greater than 32.5. The fold change (FC) in experiment [8] is greater than 16.3. Further, the minimum inhibitory concentration (MIC) in experiment [1] was less than 0.071 µM.

`COc1cc(NC(=O)COc2cc(C)nc3ccc(OC)cc23)cc(OC)c1` gave an MIC in experiment [1] of 2.04 µM (≈ 0.78 µg/mL). That is a single-digit micromolar value.

`COc1ccc2nc(C)cc(OCC(=O)NCc3ccccc3)c2c1`: the fold change (FC) in experiment [2] was 3.9; in experiment [3] it was 3.9; in experiment [4], 23.5; in experiment [5], 3; in experiment [6] it was 15.7; in experiment [7], greater than 250. In experiment [8], the fold change (FC) was 47. For the same compound, the MIC in experiment [1] is 0.59 µM (≈ 0.198 µg/mL).

On to `COc1ccccc1NC(=O)COc1cc(C)nc2ccccc12`, for which the minimal inhibitory concentration (MIC) in experiment [1] stood at 7.13 µM (≈ 2.3 µg/mL). That is a single-digit micromolar value.

For the compound `Nc1ccc(C(=O)O)c(O)c1` [AMINOSALICYLIC ACID], the fold change (FC) in experiment [2] turned out to be 0.5; in experiment [3], 0.3; in experiment [4], 0.2; in experiment [5], 0.3; in experiment [6], 0.5; in experiment [7], 0.5. Further, the fold change (FC) in experiment [8] is 0.5. Moreover, in experiment [1], the MIC was 0.6 µM (≈ 0.0919 µg/mL).

Take `COc1ccccc1NC(=O)COc1cc(C)nc2ccc(C(F)(F)F)cc12`: the MIC in experiment [1] was greater than 128 µM.

Turning to `COc1ccc2nc(C)cc(OCC(=O)Nc3cccc(Br)c3)c2c1`, the MIC in experiment [1] was 0.37 µM (≈ 0.148 µg/mL).

As for `COc1ccc2nc(C)cc(OCC(=O)NCCCc3ccccc3)c2c1`, the minimum inhibitory concentration (MIC) in experiment [1] came to 2.14 µM (≈ 0.78 µg/mL).

For the compound `COc1ccccc1NC(=O)COc1cc(C)nc2ccc(C)cc12`, the MIC in experiment [1] came out at 0.45 µM (≈ 0.151 µg/mL).

In experiment [1], `COc1ccc2nc(C)cc(OCC(=O)Nc3ccc(Cl)cc3)c2c1` came in with an MIC of 0.2 µM (≈ 0.0714 µg/mL).

The compound `COc1ccc2nc(C)cc(OCC(=O)Nc3ccccc3Cl)c2c1` showed a minimum inhibitory concentration (MIC) in experiment [1] of less than 0.067 µM.

Take `COc1ccc(NC(=O)COc2cc(C)nc3ccc(OC)cc23)cc1`: the fold change (FC) in experiment [2] came out at 3.1; in experiment [3], 3.1; in experiment [4] it was 24.5; in experiment [5], 4.1; in experiment [6], 15.9; in experiment [7], 63.9. For the same compound, the fold change (FC) in experiment [8] stood at 24.5. In addition, the minimal inhibitory concentration (MIC) in experiment [1] was found to be 0.14 µM (≈ 0.0493 µg/mL).

Turning to `C#CCNC(=O)COc1cc(C)nc2ccc(OC)cc12`, the MIC in experiment [1] was determined as 21.98 µM (≈ 6.25 µg/mL). This counts as double-digit micromolar.

Turning to `COc1ccc2nc(C)cc(OCC(=O)Nc3ccccc3)c2c1`, the fold change (FC) was 1.8 in experiment [2]; 5 in experiment [3]; 30 in experiment [4]; 3.8 in experiment [5]; 19.5 in experiment [6]; greater than 1250 in experiment [7]. Besides, the fold change (FC) in experiment [8] is 235. Moreover, the MIC in experiment [1] amounted to 0.12 µM (≈ 0.0387 µg/mL).

In the case of `COc1ccccc1NC(=O)COc1cc(C)nc2ccc(Cl)cc12`, the minimal inhibitory concentration (MIC) in experiment [1] stood at 1.09 µM (≈ 0.389 µg/mL). This lies in the single-digit micromolar range.

`COc1ccc2nc(C)cc(OCC(=O)Nc3ccc(Br)cc3)c2c1` yielded an MIC in experiment [1] of 0.17 µM (≈ 0.0682 µg/mL).

For the compound `CC(=O)NC[C@H]1CN(c2ccc(N3CCOCC3)c(F)c2)C(=O)O1` [LINEZOLID], the minimal inhibitory concentration (MIC) in experiment [1] stood at 1.56 µM (≈ 0.526 µg/mL).

With `COc1ccc2nc(C)cc(OCC(=O)Nc3ccccc3OC)c2c1`, the fold change (FC) in experiment [2] came to 6.1; in experiment [3], 4.1; in experiment [4], 24.5; in experiment [5] it was 1.4; in experiment [6], 15.9; in experiment [7] it was 46.9. The fold change (FC) in experiment [8] was found to be 46.9. Further, the MIC in experiment [1] amounted to 0.14 µM (≈ 0.0493 µg/mL).

On to `COc1ccc2nc(C)cc(OCC(=O)Nc3ccc4c(c3)OCO4)c2c1`, for which the fold change (FC) came out at 1.4 in experiment [2]; 5.6 in experiment [3]; 32.9 in experiment [4]; 2.1 in experiment [5]; 32.9 in experiment [6]; 134 in experiment [7]. Also, the fold change (FC) in experiment [8] came out at 17.1. This compound also registered a minimum inhibitory concentration (MIC) in experiment [1] of 0.19 µM (≈ 0.0696 µg/mL).

Consider `COc1ccc(NC(=O)COc2cc(C)nc3ccc(OC)cc23)c(OC)c1`, for which the MIC in experiment [1] was determined as 0.18 µM (≈ 0.0688 µg/mL).

Take `COc1ccc2nc(C)cc(OCC(=O)Nc3ccc(-c4ccccc4)cc3)c2c1`: the MIC in experiment [1] worked out at 0.12 µM (≈ 0.0478 µg/mL).

With `COc1ccc2nc(C)cc(OCC(=O)NCc3ccc4c(c3)OCO4)c2c1`, the fold change (FC) in experiment [2] was greater than 12.5; in experiment [3], greater than 6.3; in experiment [4], greater than 32.5; in experiment [5] it was greater than 12.5; in experiment [6] it was greater than 95.8; in experiment [7], greater than 130. Further, the fold change (FC) in experiment [8] was greater than 25. The compound further yielded an MIC in experiment [1] of less than 0.063 µM.

For the compound `CCCCCNC(=O)COc1cc(C)nc2ccc(OC)cc12`, the MIC in experiment [1] was found to be 0.95 µM (≈ 0.301 µg/mL). That is a sub-micromolar value.

`COc1ccc2nc(C)cc(OCC(=O)Nc3ccc(OC)c(OC)c3)c2c1` came in with an MIC in experiment [1] of 3.14 µM (≈ 1.2 µg/mL).

`c1ccc(Cn2cnc3c(-c4ccco4)nccc32)cc1`: the fold change (FC) was 20.2 in experiment [2]; 20.2 in experiment [3]; 10.1 in experiment [4]; 20.2 in experiment [5]; 61.3 in experiment [6]; greater than 81 in experiment [7]. Moreover, the fold change (FC) in experiment [8] is greater than 81. The same compound came in with an MIC in experiment [1] of 0.31 µM (≈ 0.0853 µg/mL).

In the case of `COc1ccc2nc(C)cc(OCC(=O)NCCc3ccc4c(c3)OCO4)c2c1`, the MIC in experiment [1] was determined as 3.04 µM (≈ 1.2 µg/mL).

On to `COc1ccccc1NC(=O)COc1cc(C)nc2ccc(Br)cc12`, for which the minimum inhibitory concentration (MIC) in experiment [1] was found to be 0.5 µM (≈ 0.201 µg/mL).

In the case of `COc1cccc(NC(=O)COc2cc(C)nc3ccc(OC)cc23)c1`, in experiment [1], the MIC was 0.57 µM (≈ 0.201 µg/mL).
